# Experimental data from a melting point compilation (Tetko et al.; mined from patent text by program, amines drawn as free bases though some values may be those of a salt).
row,Structure (SMILES),melting point [°C]
1,COc1cccc(OC)c1C(=O)NC(=S)NNC(=O)c1ccc(Cl)cc1,206 to 208
2,O=c1ncc(Cl)cn1CS(=O)c1ccc(Cl)cc1 (stereo unspecified),262
3,Cc1ccccc1CC(=O)Nc1ccc(C(=O)N2Cc3cccn3Cc3ccccc32)cc1,198 to 200
4,Cc1nsc(CCCOc2c(C)cc(-c3noc(C)n3)cc2C)n1,67 to 71
5,CCCCCCN(C[C@H]1CCC[C@H](CN(CCCCCC)C(=O)Nc2ccc(N(C)C)cc2)C1)C(=O)Nc1ccc(N(C)C)cc1 (relative stereo),121 to 125
6,O=[N+]([O-])c1c(Cl)cccc1NCC(O)CO (stereo unspecified),126
7,CCS(=O)(=O)n1cc(C(=O)c2ccn3c2CSC3c2cccnc2)c2ccc(-c3ccc(F)cc3)cc21 (stereo unspecified),132
8,CCOC(=O)CCCSc1nccc(NC(N)=NCC(F)(F)F)n1,120 to 122
9,CCCC1(C(C)C)NC(=S)N(c2cc(Cl)cc(Cl)c2)C1=O (stereo unspecified),160
10,CCOC(=O)CN=C(c1ccccc1)c1cc(Cl)ccc1N,130 to 135
11,COc1ccc(-c2ccc(C(C)=O)cc2)cc1F,149 to 150
12,COc1cc2ncc(C#N)c(Nc3cc(Br)c(O)c(Br)c3)c2cc1OC,> 250
13,CCN(CC)c1c([N+](=O)[O-])cc(C(F)(F)F)c(N2CCCC2=O)c1[N+](=O)[O-],94 to 95
14,CCCC(=O)NCCc1c[nH]c2cc(Cl)c(OC)cc12,98 to 98.5
15,COC(=O)C=Cc1cc(O)c(O)c([N+](=O)[O-])c1,186 to 187
16,CC1=C(C)C(=O)C(CCCOc2ccc(C=C3SC(=O)NC3=O)cc2)=C(C)C1=O,230 to 232
17,COc1cc(C=O)cc2c1OC1(C=C2Br)CCC1,128 to 129
18,C=CCn1c(=O)c2cnc(-n3ccnc3)nc2n(C(C)C)c1=O,158 to 160
19,NC(=O)c1csc(Cl)c1,138 to 139
20,Cc1nc(S(=O)(=O)CC(N)=O)nc(C)c1Br,175 to 177
21,N#Cc1ccc(NC(=O)c2cccc(OCc3cc(F)cc(F)c3)c2)cc1,185 to 187

row,Structure (SMILES),melting point [°C]
1,C=C(CNc1ccc2ncnc(Nc3cccc(Br)c3)c2c1)C(=O)OC,157 to 162
2,CC(=O)c1c(Sc2cc(Cl)cc(Cl)c2)[nH]c2ccc(Cl)cc12,180 to 185
3,O=C(O)c1ccc(COc2ccc3cc(-c4ccc(-c5ccccc5)n4-c4ccccc4)ccc3c2)cc1,309 to 310
4,CS(=O)(=O)N(Cc1cccnc1)c1ccc(F)cc1F,132 to 135
5,CC1(C)Oc2ccc(C#N)cc2[C@@H](NC(=O)Nc2ccc3c(c2)CNC3)[C@@H]1O,215 to 217
6,Cc1ccc(S(=O)(=O)OCCc2ccc3cc(Br)ccc3n2)cc1,107 to 109
7,CSc1ccc(Nc2cc(-c3nnc(C)o3)ccn2)cc1,203 to 204
8,Cc1ccccc1NC(=O)Nc1ccc(CC(=O)N[C@@H](CC(C)C)C(=O)O)cc1,178 to 179
9,COCNc1c(C#N)cnn1-c1ccc(Cl)c(Cl)c1Cl,129 to 130
10,COc1ccc(C(=O)OC2C=C(C)C(=O)CC(C)(C)C2OC(C)=O)cc1 (stereo unspecified),93 to 94
11,Cn1nc(C2CCN(C#N)CC2)c2ccc(F)cc21,133 to 136
12,COc1cc(C(=O)CBr)cc(OC)c1OC,61 to 62
13,COC(=O)c1cc2cc(-c3ccc(C)cc3)ccc2nc1C,84 to 87
14,CCSCC(=O)c1cc(C(C)(C)C)c(O)c(C(C)(C)C)c1,133 to 134
15,Cc1ccc(S(=O)(=O)N(c2ccc([N+](=O)[O-])cc2Cl)C(C)C)cc1,154 to 157
16,COc1c(N)cccc1NC(=O)c1ccc(Br)cc1,111 to 112
17,CC1Cn2c(nc3c(cnn3C)c2=O)S1 (stereo unspecified),178 to 179
18,CCOC(=O)C1=C(C)NC(C=O)=C(C(=O)OCC)C1c1cc([N+](=O)[O-])ccc1Cl (stereo unspecified),172 to 173
19,CC12CCC(=O)CC1CCC1C2CCC2(C)C(OC(=O)CCl)CCC12 (stereo unspecified),135 to 136
20,CC/C(=C(\c1ccc(/C=C/C(=O)O)cc1)c1ccc(OC(=O)CN(C)C)cc1)c1ccccc1,206 to 208
21,Cc1cc(F)c([N+](=O)[O-])cc1N,178

row,Structure (SMILES),melting point [°C]
1,CCS(=O)(=O)N[C@H](C(=O)NCCc1cc(Br)c(OCC#Cc2ccc(Cl)cc2)c(OC)c1)C(C)C,109 to 111
2,CC(=O)Oc1ccc(OC(C)=O)c(-c2ccc(C)cc2)c1,94 to 96
3,CCCc1c(OC(C)c2cccc(C(=O)O)c2)ccc(C(C)=O)c1O (stereo unspecified),101 to 103
4,CC(=O)c1c(C)[nH]c(-c2ccncc2)c1-c1ccncc1,236 to 239
5,COc1ccc(C[C@H](NC(=O)[C@H](CC(C)C)NC(=O)OCc2ccccc2)C(=O)CSC)cc1,100 to 101
6,Cn1cnnc1C(OCCO)(c1ccc(F)cc1)c1cc2c3c(c1)c(-c1cccc(Cl)c1)cc(=O)n3CC2 (stereo unspecified),138
7,O=[N+]([O-])c1ccc(C2CCNCC2)cc1,90 to 92
8,O=S(=O)(N=CN(CCO)CCO)c1cc(Br)cc(Br)c1,118
9,Cc1oc(-c2ccccc2)nc1COc1cccc(CON=C(CCC(=O)O)c2ccccc2)c1,108 to 109
10,COCC#CCCCCC12OCC(C(C)(C)C)(CO1)CO2,47 to 49
11,CCOc1cc(C(CS(C)(=O)=O)N2C(=O)c3cccc(CNC(C)=O)c3C2=O)ccc1OC (stereo unspecified),84 to 86
12,CCOC(=O)c1ccc2c(c1)c(C)c(C)n2C(C)=O,98 to 101
13,CCOC(=O)CNC(=O)[C@H](Cc1ccc(O)cc1)NC(=O)[C@H](CO)NC(=O)OCc1ccccc1,166 to 169
14,N#CCCCCn1ccc(NC(=S)NCC(F)(F)F)n1,96 to 98
15,CCOC(=O)Nc1ccc(C2=NN(c3nnc(C)s3)[C@H](C)Cc3cc4c(cc32)OCO4)cc1C,241 to 244
16,Cc1cc(C)c(OC(=O)NC2CC2c2ccc(-c3ncn(-c4ccc(OC(F)(F)F)cc4)n3)cc2)c(C)c1 (stereo unspecified),199 to 202
17,COC(=O)c1ccc(OC)c(C=C2COc3ccc(OCc4ccccc4)cc3C2=O)c1,167 to 169
18,CC(NC(=O)Cc1cc(F)cc(F)c1)C(=O)NC1C(=O)NCc2cc(F)ccc21 (stereo unspecified),195 to 200
19,COc1ccc(-c2ccc(Br)cc2[N+](=O)[O-])cc1,130 to 131
20,CC(=O)NC[C@H]1CN(c2ccc(N3CCN(C(=O)CCCC(=O)c4ccc(NC(=O)CN)cc4)CC3)c(F)c2)C(=O)O1,178 to 181
21,CCCCCCCC(=O)N(C)Cc1cccc(-c2ccc(C=CC(=O)O)s2)c1,102 to 104

# Results, then the compound that gave them:
row,melting point [°C],Structure (SMILES)
1,251 to 253,NC(=O)Cc1cnc2c(NC(=O)c3c(Cl)cccc3Cl)cccc2c1
2,122,CC1CCc2c(c3cc(Br)ccc3n2C(=O)OC(C)(C)C)C1 (stereo unspecified)
3,114 to 119,CC(Nn1cncn1)(c1ccc(F)cc1)c1ccc(F)cc1
4,166 to 168,N#Cc1c(Cc2ccccc2)nn(C2CCCC2)c1NC(=O)Cc1ccccc1
5,120 to 122,COCCOC(=O)C1=C(O)c2ccccc2S(=O)(=O)N1
6,288,O=C1Cc2cc(CCN3CCN(c4nsc5ccccc45)CC3)ccc2N1
7,54.5 to 56,N#Cc1cccc(CN2CCc3ccccc32)c1
8,118,c1ccc2c(c1)SCCc1c-2n(CCN2CCCCC2)c2ccccc12
9,226 to 228,CC(=O)Nc1ccc(OCC2CCN(c3ccncc3)CC2)cc1
10,141 to 143,c1ccc2nc3c(nc2c1)OCC1CCCCN31 (stereo unspecified)
11,158 to 159,CN1CC(CCCl)N(C)c2nc3ccccc3n2C1=O (stereo unspecified)
12,177 to 180,FC(F)(F)c1ccc2c(c1)ncn2-c1cccc(-n2ccnc2)c1
13,204 to 205,C#CCOC(=O)Nc1ccc(C2=NNC(=O)CC2C)cc1 (stereo unspecified)
14,205 to 206,Nc1ccc(S(=O)(=O)N2CCCC(c3ccc(Cl)cc3)=N2)cc1
15,203 to 204,O=C(O)CCN=c1sc2ccccc2s1
16,84 to 86,CCCCCCCCCc1ccc(C(=O)[C@@H]2CCCC[C@H]2C(=O)O)cc1 (relative stereo)
17,78 to 80,O=C(Cl)N1CC(Oc2ccc(Cl)cc2)C1
18,292 to 295,CSc1nc(=O)n(-c2ccc(Cl)cc2)c(=O)[nH]1
19,147 to 149,COc1ccc2oc(-c3nc4c(s3)NCCCC4C(C)=O)cc2c1 (stereo unspecified)

row,melting point [°C],Structure (SMILES)
1,100 to 101,O=C(Nc1ccc(Oc2ccccc2)cc1)N1CCN(c2nnc(Cc3ccccc3)c3ccccc23)CC1
2,206,c1ccc(-c2ccc(-c3cnc(-c4ccccc4)[nH]3)cn2)cc1
3,158 to 160,CO/C=C(/C(=O)OC)c1ccccc1Oc1cc(N)ncn1
4,253 to 254,O=C1Nc2cc(C(F)(F)F)ccc2S(=O)(=O)c2ccccc21
5,240,Cc1nc(Cl)c2c(c1O)COC2(c1ccccc1)c1ccccc1
6,127 to 132,CC(c1oc2ccccc2c(=O)c1-c1cccc(F)c1)n1nc(-c2cccc(C(=O)NC3CC3)c2)c2c(N)ncnc21 (stereo unspecified)
7,162 to 163,OCCc1ccccc1Nc1ncc2c(n1)-c1ccccc1[C@H](c1ccccc1F)C2
8,155 to 156,Cc1nccn1-c1nc(-c2ccc(Cl)cc2)c(CCC(=O)NCCCl)o1
9,101 to 102,COC(c1cccs1)C1C(c2ccccc2)CC(=O)N1C (stereo unspecified)
10,166 to 167,O=C1Nc2cccnc2N(C(=O)NCCN2CCC(CNCC3CCCCC3)C2)c2ccccc21 (stereo unspecified)
11,92 to 93,COc1ccc(C)c2c1C(C=O)C1CCCCC21 (stereo unspecified)
12,164 to 169,CNC1=NN(C(=O)c2ccccc2C(F)(F)F)C(C)(C)S1
13,215 to 218,O=C(O)c1cc(-c2ccc3c(c2)CCO3)nn(Cc2ccc(F)cc2)c1=O
14,239 to 240,O=C(O)C=Cc1ccc(OCC2CN(c3ccccc3)C(=O)O2)cc1 (stereo unspecified)
15,237 to 241,CNC(=O)N[C@H]1CC[C@H](CCN2CCN(c3ccc(OC)c(Cl)c3Cl)CC2)CC1
16,86,COC(=O)c1ccccc1NCc1ccncc1
17,125 to 126,CS(=O)(=O)Oc1ccccc1C(=O)O
18,80 to 83,CN(C)CCNC(=O)N1CCN(c2ccc(Cl)c(Cl)c2)CC1
19,73 to 76,Cc1nc2ccc3c(c2o1)C(CCNC(=O)c1ccccc1)CC3 (stereo unspecified)
